In ChEMBL document CHEMBL1140430, “Novel indole-based peroxisome proliferator-activated receptor agonists: design, SAR, structural biology, and biological activities” (J Med Chem, 2005):
Active and inactive are the calls of the source. No cut-off for these calls is given here.

Columns and labels:
[1] = Time taken to achieve maximum concentration in male BALB/c mice administered with 35 mg/kg, po; assay type: ADME, organism-based; parameters: dose 35 mg/kg, route oral; conditions: mouse, in vivo
[2] = Clearance in male BALB/c mice administered with 9.7 mg/kg, iv; assay type: ADME, organism-based; parameters: dose 9.7 mg/kg, route intravenous; conditions: mouse, in vivo
[3] = Half life in male BALB/c mice administered with 35 mg/kg, po; assay type: ADME, organism-based; parameters: dose 35 mg/kg, route oral; conditions: mouse, in vivo
[4] = Maximum concentration in male BALB/c mice administered with 35 mg/kg, po; assay type: ADME, organism-based; parameters: dose 35 mg/kg, route oral; conditions: mouse, in vivo
[5] = Oral bioavailability in male BALB/c mice administered with 35 mg/kg, po; assay type: ADME, organism-based; conditions: mouse, in vivo
[6] = Area under curve (0-24) in male BALB/c mice administered with 35 mg/kg, po; assay type: ADME, organism-based; parameters: dose 35 mg/kg, route oral; conditions: mouse, in vivo
[7] = Area under curve (0-24) in male BALB/c mice administered with 9.7 mg/kg, iv; assay type: ADME, organism-based; parameters: dose 9.7 mg/kg, route intravenous; conditions: mouse, in vivo
[8] = Half life in male BALB/c mice administered with 9.7 mg/kg, iv; assay type: ADME, organism-based; parameters: dose 9.7 mg/kg, route intravenous; conditions: mouse, in vivo
[9] = Volume of distribution in male BALB/c mice administered with 9.7 mg/kg, iv; assay type: ADME, organism-based; parameters: dose 9.7 mg/kg, route intravenous; conditions: mouse, in vivo, read-out: Vss
[10] = target: T1, Peroxisome proliferator-activated receptor delta (Homo sapiens, UniProt Q03181)
T1 sequence (Q03181 whole entry): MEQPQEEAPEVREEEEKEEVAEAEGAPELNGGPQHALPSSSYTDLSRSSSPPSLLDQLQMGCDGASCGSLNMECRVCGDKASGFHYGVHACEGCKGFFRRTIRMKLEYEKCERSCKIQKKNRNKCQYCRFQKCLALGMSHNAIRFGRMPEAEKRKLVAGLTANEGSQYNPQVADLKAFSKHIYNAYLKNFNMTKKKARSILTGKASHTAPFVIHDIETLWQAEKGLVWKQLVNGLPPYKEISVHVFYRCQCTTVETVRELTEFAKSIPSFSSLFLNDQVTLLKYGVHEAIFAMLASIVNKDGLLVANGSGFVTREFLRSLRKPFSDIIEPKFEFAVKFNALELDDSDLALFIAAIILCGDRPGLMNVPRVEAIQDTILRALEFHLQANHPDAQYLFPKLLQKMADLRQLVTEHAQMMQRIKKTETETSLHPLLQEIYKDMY
Description: Functional activity at human PPAR delta in Huh7 cells by transactivation assay

[11] = target: T2, Peroxisome proliferator-activated receptor gamma (Homo sapiens, UniProt P37231)
T2 sequence (P37231 whole entry): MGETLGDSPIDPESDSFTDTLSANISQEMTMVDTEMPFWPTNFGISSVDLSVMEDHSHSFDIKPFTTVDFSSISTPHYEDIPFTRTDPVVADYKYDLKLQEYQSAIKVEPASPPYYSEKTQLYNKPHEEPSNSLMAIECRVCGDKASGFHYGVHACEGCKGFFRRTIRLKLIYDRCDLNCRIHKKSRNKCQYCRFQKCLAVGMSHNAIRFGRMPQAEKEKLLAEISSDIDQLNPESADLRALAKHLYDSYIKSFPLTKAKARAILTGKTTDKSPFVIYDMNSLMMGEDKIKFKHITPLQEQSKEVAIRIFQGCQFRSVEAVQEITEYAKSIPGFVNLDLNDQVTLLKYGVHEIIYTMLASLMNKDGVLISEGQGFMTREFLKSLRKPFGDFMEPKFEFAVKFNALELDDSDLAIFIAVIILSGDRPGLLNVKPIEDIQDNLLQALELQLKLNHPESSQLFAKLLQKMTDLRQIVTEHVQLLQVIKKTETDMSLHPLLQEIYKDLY
Description: Displacement of [3H]rosiglitazone from human PPAR gamma by SPA assay

[12] = target: T2, Peroxisome proliferator-activated receptor gamma; assay type: functional, cell-based, Huh-7
Description: Functional activity at human PPAR gamma in Huh7 cells by transactivation assay

[13] = target: T3, Peroxisome proliferator-activated receptor alpha (Homo sapiens, UniProt Q07869); experiment: Functional activity at human PPAR alpha in Huh7 cells by transactivation assay; assay type: cell-based, Huh-7
T3 sequence (Q07869 whole entry): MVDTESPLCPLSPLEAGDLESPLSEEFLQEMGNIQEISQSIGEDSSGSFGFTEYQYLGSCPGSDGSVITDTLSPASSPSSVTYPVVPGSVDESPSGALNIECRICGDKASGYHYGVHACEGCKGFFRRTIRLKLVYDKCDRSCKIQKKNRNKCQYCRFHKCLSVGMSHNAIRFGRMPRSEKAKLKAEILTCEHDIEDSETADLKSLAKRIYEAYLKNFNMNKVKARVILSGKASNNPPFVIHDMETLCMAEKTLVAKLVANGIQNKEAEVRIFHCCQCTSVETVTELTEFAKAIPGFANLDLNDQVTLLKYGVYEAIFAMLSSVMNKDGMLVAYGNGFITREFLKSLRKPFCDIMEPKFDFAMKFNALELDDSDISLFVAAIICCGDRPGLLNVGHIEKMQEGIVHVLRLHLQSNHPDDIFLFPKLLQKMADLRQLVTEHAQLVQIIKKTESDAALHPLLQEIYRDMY

[14] = test system: Mus musculus; experiment: Effect on reduction of plasma glucose in orally dosed KKAy/TaJcl mice at 10 mg/kg in a 10 day study; assay type: functional, organism-based; parameters: dose 10 mg/kg
[15] = test system: Mus musculus; experiment: Effect on reduction of plasma glucose in orally dosed KKAy/TaJcl mice at 30 mg/kg in a 10 day study; assay type: functional, organism-based; parameters: dose 30 mg/kg

SMILES	EC50 [10] [µM]	IC50 [11] [µM]	EC50 [12] [µM]	EC50 [13] [µM]	further results
CCCc1c(OCCCOc2ccc3c(ccn3CC(=O)[O-])c2)ccc2c(C(F)(F)F)noc12.[Na+]	–	–	–	–	Tmax [1]: 4.7 h; clearance [2]: 0.054 L/h/kg; half-life [3]: 7.8 h; Cmax [4]: 59 µg/mL; bioavailability [5]: 100%; AUC [6]: 652 µg·h/mL; AUC [7]: 181 µg·h/mL; half-life [8]: 6.9 h; Vd [9]: 0.4 L/kg
CCCc1c(OCCCOc2cccc3c2ccn3CC(=O)O)ccc2cc(-c3ccccc3)oc12	7.74	1.95	> 10	> 10	–
CCCc1c(OCCCOc2ccc3c(ccn3CCC(=O)O)c2)ccc2c(C(F)(F)F)noc12	–	0.584	1.2	–	–
CCCc1c(OCCOc2cccc3c2ccn3CC(=O)O)ccc2c(C(F)(F)F)noc12	–	1.49	> 10	–	–
CCCc1c(OCCOc2ccc3c(ccn3CC(=O)O)c2)ccc2c(C(F)(F)F)noc12	0.125	0.422	0.69	0.311	–
CCCc1c(OCCCOc2ccc3c(ccn3CC(=O)O)c2)ccc2c(-c3ccccc3)noc12	0.08	0.12	0.29	0.018	–
CCCc1c(OCCCCCOc2cccc3c2ccn3CC(=O)O)ccc2c(C(F)(F)F)noc12	–	1.78	> 10	–	–
CCCc1c(OCCCOc2cccc3c2ccn3CC(=O)O)ccc2c(-c3ccccc3)coc12	2.13	3.97	4.15	0.169	–
CCCc1c(OCCCOc2ccc3ccn(CC(=O)O)c3c2)ccc2c(C(F)(F)F)noc12	0.08	1.05	1.35	1.82	–
CCCc1c(OCCCOc2ccc3c(ccn3Cc3nn[nH]n3)c2)ccc2c(C(F)(F)F)noc12	0.37	1.12	0.898	0.474	–
CCCc1c(OCCCOc2cccc3c2ccn3CC(=O)O)ccc2c(-c3ccccc3)noc12	0.32	0.127	0.43	0.002	–
CCCc1c(OCCCCOc2cccc3c2ccn3CC(=O)O)ccc2c(C(F)(F)F)noc12	> 10	0.774	1.98	> 10	–
CCCc1c(OCCCOc2cccc3c2ccn3C(CC)C(=O)O)ccc2c(C(F)(F)F)noc12 (stereo not drawn)	–	1.28	> 10	–	–
CCCc1c(OCC(C)COc2cccc3c2ccn3CC(=O)O)ccc2c(C(F)(F)F)noc12 (stereo not drawn)	–	1.3	3.03	–	–
CCCc1c(OCCCOc2cccc3c2ccn3CCC(=O)O)ccc2c(C(F)(F)F)noc12	–	1.1	2.19	–	–
CCCc1c(OCCCCCOc2ccc3c(ccn3CC(=O)O)c2)ccc2c(C(F)(F)F)noc12	–	1.05	1.49	–	–
CCCc1c(OCCCOc2cccc3c2ccn3CC(=O)O)ccc2c(C(F)(F)F)noc12	0.61	1.99	2.39	0.186	–
CCCc1c(OCCCOc2ccc3c(ccn3CC(=O)O)c2)ccc2c(C(F)(F)F)noc12 [listing 1 of 2 here]	–	–	–	–	Activity [14]: Active; Activity [15]: Active
CCCc1c(OCCC(C)CCOc2cccc3c2ccn3CC(=O)O)ccc2c(C(F)(F)F)noc12 (stereo not drawn)	–	1.45	> 10	–	–
CCCc1c(OCCCOc2ccc3c(ccn3CC(=O)O)c2)ccc2c(C(=O)C(F)(F)F)c[nH]c12	9.17	2.41	> 10	2.2	–
CCCc1c(OCCCOc2ccc3c(ccn3CC(=O)O)c2)ccc2c(C#N)c[nH]c12	2.62	0.759	9.17	5.21	–
CCCc1c(OCCCOc2cccc3c2ccn3CC(=O)O)ccc2cc[nH]c12	0.42	4.81	1.81	1.21	–
CCCc1c(OCCC(C)CCOc2ccc3c(ccn3CC(=O)O)c2)ccc2c(C(F)(F)F)noc12 (stereo not drawn)	–	1.37	> 10	–	–
CCCc1c(OCCCOc2ccc3c(ccn3C(CC)C(=O)O)c2)ccc2c(C(F)(F)F)noc12 (stereo not drawn)	–	1.71	5.9	–	–
CCCc1c(OCCCOc2ccc3c(ccn3CC(=O)O)c2)ccc2c(C(F)(F)F)noc12 [listing 2 of 2 here]	–	–	–	0.014	–
CCCc1c(OCCCOc2cccc3c2ccn3CC(=O)O)ccc2cc(-c3ccccc3)[nH]c12	3.34	1.68	2.82	0.5	–
CCCc1c(OCCCCOc2ccc3c(ccn3CC(=O)O)c2)ccc2c(C(F)(F)F)noc12	0.243	0.105	0.28	1.04	–
